Data taken from paper PMC6857076 (Pharmacology Research & Perspectives, 2019).
Where two headings read alike, the source gives them in different places.

How the values were obtained:
[1] = unbound, Cav × fu
[2] = human; baricitinib 4 mg QD; cited from earlier work
[3] = tested on: CRP; conditions: RA, cited from earlier work
[4] = pooled RA clinical studies, cited from earlier work
[5] = tested on: platelet counts; conditions: integrated analysis of phase 1b, 2, 3 and LTE RA studies, baricitinib 4 mg QD; cited from earlier work
[6] = target: recombinant human kinase domain of TYK2 (Homo sapiens, UniProt P29597); experiment: Enzymatic microfluidic kinase assay, TYK2
Sequence of recombinant human kinase domain of TYK2 (P29597 897-1176 limits assumed): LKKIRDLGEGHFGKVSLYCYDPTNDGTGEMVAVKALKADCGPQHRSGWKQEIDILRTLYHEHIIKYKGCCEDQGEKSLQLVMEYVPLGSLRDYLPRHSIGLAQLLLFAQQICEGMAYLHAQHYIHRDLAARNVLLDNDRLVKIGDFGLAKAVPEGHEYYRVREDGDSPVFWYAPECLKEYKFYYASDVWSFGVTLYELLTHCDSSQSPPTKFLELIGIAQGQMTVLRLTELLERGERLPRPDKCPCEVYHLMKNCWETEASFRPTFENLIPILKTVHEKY

[7] = tested on: NK cell counts; conditions: RA, baricitinib 4 mg QD, cited from earlier work
[8] = integrated analysis of phase 1b, 2, 3 and LTE RA studies, baricitinib 4 mg QD; cited from earlier work
[9] = in vitro; conditions: both, human, pooled human plasma

| Cav,u ([1]; tofacitinib 5 mg BID) | SMILES | Cav,u ([1]; baricitinib 4 mg QD) | Cav [2] | reduction of CRP levels from baseline to week 12 ([3]; baricitinib 4 mg QD) | herpes zoster incidence rate ([4]; baricitinib 2 mg QD) | herpes zoster incidence rate ([4]; baricitinib 4 mg QD) | platelet counts vs baseline [5] | IC50 [6] | change from baseline in NK cell counts ([7]; week 12) | change from baseline in NK cell counts ([7]; week 24) | hemoglobin levels vs baseline [8] | fraction unbound at 6 h, 1 μmol/L [9] | reduction of CRP levels from baseline to week 12 ([3]; tofacitinib 5 mg BID) |
| --- | --- | --- | --- | --- | --- | --- | --- | --- | --- | --- | --- | --- | --- |
| – | CCS(=O)(=O)N1CC(CC#N)(n2cc(-c3ncnc4[nH]ccc34)cn2)C1 [Baricitinib] | 16.0 nM | 27 nM | approximately −10 mg/L | 2.7 events per 100 patient-years | 4.3 events per 100 patient-years | initial increase in platelet counts, which then returned toward baseline | 14 nM | −57.0 cells/mm^3 | −53.4 cells/mm^3 | decreased from baseline to week 20, then returned to baseline or higher | 0.59 | – |
| 41.0 nM | C[C@@H]1CCN(C(=O)CC#N)C[C@@H]1N(C)c1ncnc2[nH]ccc12 [Tofacitinib] | – | – | – | – | – | – | – | – | – | – | – | -10.1 mg/L |
